The values below come from ChEMBL document CHEMBL1240428, “Conventional and microwave assisted synthesis of some new N-[(4-oxo-2-substituted aryl -1, 3-thiazolidine)-acetamidyl]-5-nitroindazoles and its antimicrobial activity” (2010).

≈ marks a conversion by molar mass, not a printed value.

In test [1] the test system is Salmonella typhi. The test can be described thus: Antibacterial activity against Salmonella typhi at 50 ug/mL. Particulars: read-out: IZ.
For test [2], the system named is Aspergillus flavus. The test can be described thus: Antifungal activity against Aspergillus flavus. It counts as functional.
The test system of test [3] is Penicillium citrinum. In words: Antifungal activity against Penicillium citrinum at 50 ug/mL. It counts as functional. Particulars: read-out: IZ.
The test system of test [4] is Salmonella typhi. The test can be described thus: Antibacterial activity against Salmonella typhi.
The test system of test [5] is Penicillium citrinum. The test can be described thus: Antifungal activity against Penicillium citrinum. It counts as functional.
Test [6] concerns Aspergillus flavus. In words: Antifungal activity against Aspergillus flavus at 100 ug/mL. Particulars: read-out: IZ. It counts as functional.
In test [7] the test system is Fusarium oxysporum. The test can be described thus: Antifungal activity against Fusarium oxysporum at 50 ug/mL. It counts as functional. Particulars: read-out: IZ.
Test [8] relates to Aspergillus flavus. The test can be described thus: Antifungal activity against Aspergillus flavus at 50 ug/mL. The following applies: read-out: IZ. It counts as functional.
For test [9], the system named is Escherichia coli. In words: Antibacterial activity against Escherichia coli. It counts as functional.
Test [10] has as its system Bacillus subtilis. In words: Antibacterial activity against Bacillus subtilis at 100 ug/mL. It counts as functional. The following applies: read-out: IZ.
For test [11], the system named is Bacillus subtilis. The test can be described thus: Antibacterial activity against Bacillus subtilis at 50 ug/mL. It counts as functional. The following applies: read-out: IZ.
Test [12] relates to Fusarium oxysporum. The test can be described thus: Antifungal activity against Fusarium oxysporum. It counts as functional.
The subject of test [13] is Bacillus subtilis. In words: Antibacterial activity against Bacillus subtilis. It counts as functional.
Test [14] relates to Fusarium oxysporum. In words: Antifungal activity against Fusarium oxysporum at 100 ug/mL. It counts as functional. Particulars: read-out: IZ.
For test [15], the system named is Escherichia coli. The test can be described thus: Antibacterial activity against Escherichia coli at 50 ug/mL. It counts as functional. Particulars: read-out: IZ.
Test [16] relates to Penicillium citrinum. The test can be described thus: Antifungal activity against Penicillium citrinum at 100 ug/mL. It counts as functional. Particulars: read-out: IZ.
The subject of test [17] is Salmonella typhi. The test can be described thus: Antibacterial activity against Salmonella typhi at 100 ug/mL. The following applies: read-out: IZ.
Test [18] deals with Escherichia coli. In words: Antibacterial activity against Escherichia coli at 100 ug/mL. It counts as functional. The following applies: read-out: IZ.

Regarding `CN(C)c1ccc(C2SCC(=O)N2NC(=O)Cn2ncc3cc([N+](=O)[O-])ccc32)cc1` (stereo not drawn), the zone of inhibition at 50 µg/mL in the test with Salmonella typhi [1] amounted to 11.5 mm; in the test on Penicillium citrinum [3], 11.4 mm; in the test on Fusarium oxysporum [7], 13.9 mm; with Aspergillus flavus [8], 12.6 mm; in the test with Bacillus subtilis [11], 10.4 mm; with Escherichia coli [15], 13.5 mm. Also, the MIC in the test on Aspergillus flavus [2] stood at 22 µg/mL (≈ 49.9 µM); in the test with Salmonella typhi [4], 25 µg/mL (≈ 56.8 µM); against Penicillium citrinum [5] it was 30 µg/mL (≈ 68.1 µM); against Escherichia coli [9], 22 µg/mL (≈ 49.9 µM); against Fusarium oxysporum [12], 18 µg/mL (≈ 40.9 µM); in the test with Bacillus subtilis [13] it was 36 µg/mL (≈ 81.7 µM). For the same compound, the zone of inhibition at 100 µg/mL amounted to 15.4 mm in the test with Aspergillus flavus [6]; 13.8 mm in the test on Bacillus subtilis [10]; 16.8 mm in the test on Fusarium oxysporum [14]; 14.5 mm in the test on Penicillium citrinum [16]; 14.9 mm in the test with Salmonella typhi [17]; 16 mm with Escherichia coli [18].
